Assay results from article PMC2010042, “Effects of pretreatment with phenobarbitone and phenytoin on the pharmacokinetics and toxicity of phenytoin on the pharmacokinetics and toxicity of misonidazole in mice” (British Journal of Cancer, 1979).
Counter-ions that a name gives are not always drawn.

Tests used:
[1] = Pharmacokinetics of MIS and Ro 05-9963 in plasma/blood, brain and tumour by HPLC after 1 g/kg MIS i.p.; settings: for concentrations in whole blood compared with plasma: control studies
mice = tested on: mice; set-up: method as in Brown et al., 1979; settings: ref Brown et al., 1979; cited from earlier work
hypoxic tumour cells = tested on: hypoxic tumour cells; set-up: method as in Brown et al., 1979; settings: at equal tumour concentrations; ref Brown et al., 1979; cited from earlier work
[2] = set-up: method as in Adams et al., 1976; settings: ref Adams et al., 1976; cited from earlier work
[3] = Pharmacokinetics of MIS and Ro 05-9963 after 1 g/kg MIS i.p. in B10 mice bearing the MC6B tumour; settings: enzyme inducers; B10 strain
MC6B and EMT6 tumours = experiment: Tumour volume in pretreated mice; assay type: in vivo; settings: usually not significant (P > 0.05)
[4] = Body weight during pretreatment regime
[5] = tested on: microsomal drug-metabolizing enzymes; experiment: Pentobarbitone sleeping-time after pretreatment (index of microsomal enzyme induction); assay type: in vivo, tumour-free BALB/c mice; settings: 60 mg/kg pentobarbitone i.p. on Day 9 after pretreatment regime
liver weight = experiment: Liver/body weight ratio after pretreatment; assay type: in vivo, tumour-free BALB/c mice; settings: Day 9 after pretreatment regime
[6] = Approximate acute LD50 of single doses of phenobarbitone and phenytoin; settings: male, BALB/c, mouse, in vivo
[7] = preliminary studies in man
[8] = 1 g/kg; ref Brown et al., 1979; cited from earlier work
man = settings: ref Dische et al., 1977; Urtasun et al., 1978; cited from earlier work
BALB/c male mice = settings: MIS single i.p. 1.117-2.5 g/kg
in vivo = settings: male, BALB/c, mouse, ip, LD50(7d) (95% confidence limits), MIS single i.p.
body temperature = settings: 1 g/kg MIS; all 3 pretreated groups (saline, phenobarbitone, phenytoin)
[9] = phenobarbitone or phenytoin pretreatment (Discussion)

O=[N+]([O-])c1nccn1CC(O)CO (stereo not shown) [Ro 05-9963, 1-(2-nitroimidazol-1-yl)-2,3-propandiol]
concentrations in whole blood compared with plasma [1]: identical | increase of blood (or plasma) AUC for metabolite Ro 05-9963 ([1]; enzyme inducers, BALB/c mice): 10-60% | LD50 compared with MIS (mice): higher LD50 than MIS | radiosensitizing efficiency of MIS and Ro 05-9963 (hypoxic tumour cells): equally good radiosensitizers | lipophilicity compared with MIS [2]: considerably less lipophilic than MIS | increase of blood (or plasma) AUC for metabolite Ro 05-9963 [3]: 100%

O=C1NC(=O)C(c2ccccc2)(c2ccccc2)N1 [phenytoin, 5.5-diphenylhydantoin, sodium salt]
tumour volumes lower than the saline controls (MC6B and EMT6 tumours): up to 10% | weight loss during pretreatment ([4]; mouse, in vivo): little or no weight loss | pentobarbitone sleeping-time, % of untreated control [5]: 30% | liver wt/body wt, % of untreated control (liver weight): 124% | LD50 [6]: 200 to 240 mg/kg

COCC(O)Cn1ccnc1[N+](=O)[O-] (stereo not shown) [MIS, 1-(2-nitroimidazol-1-yl)-3-meth-oxypropan-22-ol]
reduction of apparent elimination half-life (t1/2) for MIS ([1]; 1 g/kg MIS i.p., phenobarbitone or phenytoin pretreatment vs control, plasma, brain and tumour): 20-67% | decrease of area under the curve (AUC) for MIS ([1]; 1 g/kg MIS i.p., phenobarbitone or phenytoin pretreatment, plasma, brain and tumour): 23-49% | concentrations in whole blood compared with plasma [1]: identical | Kp ([1]; male, BALB/c, mouse, tumour and brain / plasma, ip, 1 g/kg): ~0.5 | effect of pretreatment on peak MIS concentration ([1]; phenobarbitone and phenytoin pretreatment, plasma, brain or tumour): did not alter | decrease of blood (or plasma) MIS AUC [1, 9]: 25- 60% | shortening of apparent t1/2 for MIS elimination from blood or plasma [1, 9]: 35-60% | MIS t1/2 and AUC with phenytoin therapy [7]: both reduced | t1/2 of MIS after bilateral kidney ligation [8]: prolonged after bilateral kidney ligation | peripheral neuropathy in man (man): dose-limiting toxicity | time of deaths after treatment (BALB/c male mice): 3 to 4 days | LD50 at 7 days (in vivo; pretreatment phenobarbitone): 1900 mg/kg | LD50 at 7 days (in vivo; pretreatment phenytoin): 1780 mg/kg | LD50 at 7 days (in vivo; pretreatment saline (control)): 1540 mg/kg | change in body temperature after MIS (body temperature): marked decrease in temperature | radiosensitizing efficiency of MIS and Ro 05-9963 (hypoxic tumour cells): equally good radiosensitizers

CCC1(c2ccccc2)C(=O)NC(=O)NC1=O [phenobarbitone]
tumour volumes lower than the saline controls (MC6B and EMT6 tumours): up to 10% | initial weight loss during pretreatment regime ([4]; normally completely regained by Day 9): up to 10% | pentobarbitone sleeping-time, % of untreated control [5]: 36% | pentobarbitone sleeping-time, mean [5]: 26 min
